{"source": "patent US9944613B2", "about": "“Fumagillol spirocyclic compounds and fused bicyclic compounds and methods of making and using same” (Zafgen, Inc., priority 2015, dated 2018)", "key": {"recombinant human MetAP2": {"target": "T1, recombinant human MetAP2 (Homo sapiens, UniProt P50579)", "T1 construct": "Flag; made in house", "T1 sequence (P50579 whole entry)": "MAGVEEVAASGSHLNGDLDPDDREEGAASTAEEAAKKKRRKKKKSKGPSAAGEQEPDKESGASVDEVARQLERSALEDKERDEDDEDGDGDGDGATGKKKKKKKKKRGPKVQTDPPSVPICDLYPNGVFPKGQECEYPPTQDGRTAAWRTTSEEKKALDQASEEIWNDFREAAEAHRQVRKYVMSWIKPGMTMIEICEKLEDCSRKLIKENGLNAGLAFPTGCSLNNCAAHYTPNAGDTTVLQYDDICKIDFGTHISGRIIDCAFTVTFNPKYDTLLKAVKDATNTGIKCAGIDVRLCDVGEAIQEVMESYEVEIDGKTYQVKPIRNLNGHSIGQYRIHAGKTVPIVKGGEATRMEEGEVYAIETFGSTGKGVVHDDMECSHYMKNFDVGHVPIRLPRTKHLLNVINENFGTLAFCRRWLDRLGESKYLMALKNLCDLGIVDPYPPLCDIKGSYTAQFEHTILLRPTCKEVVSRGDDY", "test": "Inhibition of recombinant human MetAP2 activity (MAS peptide / amino acid oxidase / Amplex assay)", "type": "biochemical", "conditions": "Flag tagged human recombinant MetAP2, 25 minutes at 25° C.; read-out: MetAP2 IC50", "procedure": "Compounds are tested for their capacity to inhibit recombinant human MetAP2 activity using the following assay.\nFlag tagged Human recombinant MetAP2 expressed and isolated for use as the enzyme source. 10 mM stock solutions of compounds were prepared in 100% DMSO and further diluted in 100% DMSO required concentration to 1 mM stocks. The stock compound solutions and DMSO vehicle controls were diluted to target final compound concentrations using assay buffer to a final concentration of 50 mM HEPES containing 100 mM NaCl, pH adjusted to 7.5. The MAS peptide was formulated to a 7.5 mM stock in distilled water and prior to use further diluted 1:4. […] 40 μl of enzyme was mixed with 100 μl of MnCl2 then further diluted in assay buffer to a final concentration of 16 μg/ml. To test for compound effect on MetAP2 enzyme activity, 5 μl of test compound, 10 μl of MAS substrate/amino acid oxidase mixture, 10 μl of MetAP2 was added to test wells in a 384 well black plate with blank wells containing no enzyme, replaced with 10 μl of assay buffer. All compounds were tested in duplicate on two occasions on the same day.\nThe plate was sealed with a TopSeal A cover and mixed briefly on an orbital mixer at 900 rpm. The plate was incubated for a further 25 minutes at 25° C. A 5× stock of Amplex buffer was prepared (0.25M sodium phosphate, pH 7.4) and stored at 4° C. When preparing for use the stock was diluted with distilled water. […] Horse radish peroxidase was diluted in […] of Amplex buffer, 100 μl of this was combined with 50 μl of Amplex Ultrared in […] of 1× Amplex buffer to generate sufficient detection reagent for a 384 well plate. 25 μl detection reagent was added to each well of the test plate, which was re-sealed and mixed briefly on an orbital shaker. The plate was transferred to an Envision Multi-label reader and RFU measured corresponding to excitation 531 nm and emission 595 nm. At the end of the MetAP2 incubation 25 μl Amplex/HRP mixture per well was added and the plate read plate on a plate reader."}, "[1]": {"system": "Diet Induced Obese (DIO) C57BL/6 mice", "test": "10 day DIO mouse model, weight loss vs. vehicle", "type": "in vivo", "conditions": "240 h, 0.3 mpk sc once a day for 10 days", "from_the_text": "The objective of this study design was to investigate the efficacy of disclosed compounds in a 10 day DIO mouse model. Effects on body weight, food intake, hematology and blood chemistry were the primary readouts of this study design. Male, Diet Induced Obese (DIO) C57BL/6 mice, 19-21 weeks of age (13-15 weeks on high fat diet) were ordered from a certified vendor and upon receipt were housed on irradiated corncob bedding in micro-isolator cages on a 12-hour light-dark cycle (0700-1900) at 68-74° F. and 30-70% humidity. Mice were fed Research Diets D12492 (60% Kcal fat, 20% Kcal carbohydrate and 20% protein) and provided water ad libitum. DIO mice were received and housed in the facility for approximately two weeks prior to the start of test article administration. On Day −4 or −3, mice were randomized into study groups based on body weight and body weights were continued to be recorded daily for the duration of the study. Daily food intake was assessed starting on Study Day −2 by weighing of the food with hopper together to avoid loss of food in transfer.\n(§1) Compounds were formulated into a 100% DMSO stock (at 9 mg/mL) prior to the start, and further diluted into the target working concentration using the vehicle of 10% DMSO in water. Prior to test article administration, starting on Day −3 a dosing acclimation occured with all animals receiving a subcutaneous injection of vehicle (10% DMSO) only for 3 days. Starting on Day 1, test compounds or vehicle were administered based on individual body weight, subcutaneously, once a day for 10 days. All mice were sacrificed on Day 11, 24 hours following the final dosing on Day 10. After sacrifice, whole blood was collected and analyzed for hematology and blood chemistry parameters.\n(§2) Compounds were tested for weight loss vs. vehicle at 0.3 and 1.0 mpk sc (mg per kg animal weight delivered subcutaneously), and the results are shown in Table 2 below."}, "[2]": {"system": "pregnant Sprague Dawley rats (embryo/fetal development)", "test": "Rat embryofetal development study", "type": "in vivo", "conditions": "6 mpk subcutaneously once every three days, Gestation Days 6-18, pregnant rats", "from_the_text": "Study Summary Rat Embryofetal:\nThe objective of this study design was to evaluate the potential effects of disclosed compounds on embryo/fetal development when given subcutaneously to pregnant rats once every three days during the critical period of organogenesis (Gestation Days 6-18). Female, Sprague Dawley rats, approximately 10 weeks of age, time bred, were ordered from a certified vendor and housed individually housed in stainless steel cages suspended over flush pans, on a 12-hour light-dark cycle (0700-1900) at 20-26° C. and 30-70% humidity. Rats were fed a standard rodent chow and provided water ad libitum. Rats were received and housed in the facility for a period of approximately 1 to 2 days.\nCompounds were formulated using 100% DMSO mixed in Sterile Water for Injection, resulting in 2% DMSO solution in water. If necessary, due to limited solubility of a test article, a higher percentage of DMSO solution in water was used. Groups of 8 mated and presumed pregnant female rats were given subcutaneous doses of vehicle or test article, once every three days, beginning on Gestation Day 6 and ending on Gestation Day 18 (Days 6, 9, 12, 15, and 18), maintained two more days, and then euthanized and necropsied on Gestation Day 20. Body weights was recorded for all animals on Gestation Days 5 (purpose of randomization), 6, 9, 12, 15, 18, and 20 (scheduled euthanasia). Food consumption by weight was recorded on Gestation Days 6, 9, 12, 15, 18, and 20 (scheduled termination).\nAt necropsy, the dams were examined visually for external abnormalities including palpable masses. The abdominal, thoracic, and cranial cavities and their contents were examined for abnormalities and findings will be recorded. The reproductive tract were examined to record the number of ovarian corpora lutea, the number and location of uterine implantation sites noting the position of the cervix, and the number of early resorptions, late resorptions, live fetuses, and dead fetuses. For dead fetuses and late resorptions, crown-to-rump length and weight were recorded, if possible, and the fetus was discarded. For viable fetuses, weight, sex, and grossly visible external abnormalities were recorded."}, "[3]": {"system": "rat DIO model (Sprague Dawley rats on high fat diet)", "test": "11 day rat DIO model, weight loss vs. vehicle", "type": "in vivo", "conditions": "for inhibition in vivo at 0.3 mg/kg: Rattus norvegicus, 264 h, 0.3 mpk sc once a day for 11 days", "from_the_text": "The objective of this study design is to investigate the efficacy of disclosed compounds in an 11 day rat DIO model used to screen compounds for pharmacologic efficacy on endpoints related to obesity and metabolism. Effects on body weight, food intake, hematology and blood chemistries were the primary readouts of this study design. Male Sprague Dawley rats, approximately 8 weeks of age, were ordered from a certified vendor and housed on irradiated corncob bedding in micro-isolator cages, on a 12-hour light-dark cycle (0700-1900) at 68-74° F. and 30-70% humidity. Rats were fed Research Diets D12451 (45% High Fat) and provided water ad libitum. Rats were received and housed in the facility for at least two or three weeks prior to start of test article administration. On Day −4 or −3, rats were randomized into study groups based on body weight and body weights were continued to be recorded daily for the duration of the study. Daily food intake was assessed starting on Study Day −2 by weighing the hopper including the food to avoid loss of food in transfer.\nas §1, with “for 11” for “for 10”, “All animals” for “All mice”, “11, approximately 2” for “11, 24”, “Day 11.” for “Day 10.”\nas §2"}, "[4]": {"system": "human fibrosarcoma cell line HT-1080", "test": "HT-1080 cell growth inhibition (CellTiter-Glo, 72 hours)", "type": "cell-based", "conditions": "HT-1080 cells, 72 hours incubation", "procedure": "The human fibrosarcoma cell line HT-1080 were grown to almost complete confluence in T75 tissue culture flasks in preparation for the experiment. The cells were trypsinised and re-suspended in complete medium using DMEM plus 9% FBS including penicillin/streptomycin supplements. 500 cells in a total volume of 25 μl were seeded into black walled 384 well plates and returned to a CO2 incubator over-night. Compounds and standards were prepared at 333.3× actual test concentration in neat DMSO. 10 point dose response curves of test compounds were generated by 1:3 serial dilutions, 2 μl of DMSO stock was transferred to 109 μl complete medium. This was further diluted 1:6 in complete medium, with 5 μl of the resulting solution added to the incubated 384 well plate. […] For experimental blanks at the start of the experiment, CellTiter-Glo was added to a satellite plate of cells (identical to the experimental plate), when adding compounds on Day 1. The average of these wells is used as the blanks in the calculation template. […] Luminescence per well was determined using an EnVision 2104 Multilabel Reader (PerkinElmer) or other suitable reader. The compound blank value recorded on Day 1 is subtracted from all other data. […] The EC50 values are determined from a sigmoidal 4 parameter curve fit using XLfit in conjunction with Activity Base (IDBS; Guildford, Surrey, UK). […]"}}, "note": "Where a name gives a salt, the structure may show the parent alone.", "data": [{"smiles": "CO[C@@H]1[C@H](OC(=O)N2CC3(CCN(CC(F)F)CC3)C2)CC[C@]2(CO2)[C@H]1[C@@]1(C)O[C@@H]1CC=C(C)C", "note": "[Example 9, (3R,4S,5S,6R)-5-methoxy-4-((2R,3R)-2-methyl-3-(3-methylbut-2-enyl)oxiran-2-yl)-1-oxaspiro[2.5]octan-6-yl 7-(2,2-difluoroethyl)-2,7-diazaspiro[3.5]nonane-2-carboxylate formate]", "values": [{"measurement": "IC50", "setting": "recombinant human MetAP2", "value": "50 to 500", "unit": "nM"}, {"measurement": "inhibition in vivo at 0.3 mg/kg", "setting": "[1]", "value": 21.5, "unit": "%"}, {"measurement": "Rat Embryofetal @6 mpk", "setting": "[2]", "value": "Positive"}]}, {"smiles": "CO[C@@H]1[C@H](OC(=O)/C=C/c2ccc(OCCN(C)C)cc2)CC[C@]2(CO2)[C@H]1[C@@]1(C)O[C@@H]1CC=C(C)C", "note": "[compound A, [(3R,6R,7S,8S)-7-methoxy-8-[(2R,3R)-2-methyl-3-(3-methylbut-2-enyl)oxiran-2-yl]-2-oxaspiro[2.5]octan-6-yl] (E)-3-[4-[2-(dimethylamino)ethoxy]phenyl]prop-2-enoate, reference compound]", "values": [{"measurement": "inhibition in vivo at 0.3 mg/kg", "setting": "[1]", "value": 18, "unit": "%"}, {"measurement": "inhibition in vivo at 0.3 mg/kg", "setting": "[3]", "value": 20, "unit": "%"}, {"measurement": "EC50", "setting": "[4]", "value": "0.5 to 1", "unit": "nM"}, {"measurement": "Rat Embryofetal @6 mpk", "setting": "[2]", "value": "Positive"}]}, {"smiles": "CO[C@@H]1[C@H](OC(=O)N2CC3(COC3)C2)CC[C@]2(CO2)[C@H]1[C@@]1(C)O[C@@H]1CC=C(C)C", "note": "[Example 2, (3R,4S,5S,6R)-5-methoxy-4-((2R,3R)-2-methyl-3-(3-methylbut-2-enyl)oxiran-2-yl)-1-oxaspiro[2.5]octan-6-yl 2-oxa-6-azaspiro[3.3]heptane-6-carboxylate]", "values": [{"measurement": "IC50", "setting": "recombinant human MetAP2", "value": "< 50", "unit": "nM"}, {"measurement": "inhibition in vivo at 0.3 mg/kg", "setting": "[1]", "value": 11.1, "unit": "%"}, {"measurement": "Rat @ 1.0 mpk sc (%)", "setting": "[3]; 1.0 mpk sc once a day for 11 days", "value": 10.2, "unit": "%"}, {"measurement": "inhibition in vivo at 0.3 mg/kg", "setting": "[3]", "value": 8, "unit": "%"}, {"measurement": "Rat Embryofetal @6 mpk", "setting": "[2]", "value": "Positive"}]}, {"smiles": "CO[C@@H]1[C@H](OC(=O)N2CC3C(C2)C3(F)F)CC[C@]2(CO2)[C@H]1[C@@]1(C)O[C@@H]1CC=C(C)C", "note": "(stereo partly drawn) [Example 22, (3R,4S,5S,6R)-5-methoxy-4-((2R,3R)-2-methyl-3-(3-methylbut-2-enyl)oxiran-2-yl)-1-oxaspiro[2.5]octan-6-yl 6,6-difluoro-3-azabicyclo[3.1.0]hexane-3-carboxylate]", "values": [{"measurement": "IC50", "setting": "recombinant human MetAP2", "value": "< 50", "unit": "nM"}, {"measurement": "inhibition in vivo at 0.3 mg/kg", "setting": "[1]", "value": 15.5, "unit": "%"}, {"measurement": "Rat Embryofetal @6 mpk", "setting": "[2]", "value": "Negative"}]}, {"smiles": "CO[C@@H]1[C@H](OC(=O)N2CCC3(CCOCC3)C2)CC[C@]2(CO2)[C@H]1[C@@]1(C)O[C@@H]1CC=C(C)C", "note": "[Example 27, (3R,4S,5S,6R)-5-methoxy-4-((2R,3R)-2-methyl-3-(3-methylbut-2-enyl)oxiran-2-yl)-1-oxaspiro[2.5]octan-6-yl 8-oxa-2-azaspiro[4.5]decane-2-carboxylate]", "values": [{"measurement": "IC50", "setting": "recombinant human MetAP2", "value": "50 to 500", "unit": "nM"}, {"measurement": "inhibition in vivo at 0.3 mg/kg", "setting": "[1]", "value": 16.3, "unit": "%"}, {"measurement": "Rat Embryofetal @6 mpk", "setting": "[2]", "value": "Positive"}]}, {"smiles": "CO[C@@H]1[C@H](OC(=O)N2CCC3(COC3)C2)CC[C@]2(CO2)[C@H]1[C@@]1(C)O[C@@H]1CC=C(C)C", "note": "[Example 4, (3R,4S,5S,6R)-5-methoxy-4-((2R,3R)-2-methyl-3-(3-methylbut-2-en-1-yl)oxiran-2-yl)-1-oxaspiro[2.5]octan-6-yl 2-oxa-6-azaspiro[3.4]octane-6-carboxylate]", "values": [{"measurement": "IC50", "setting": "recombinant human MetAP2", "value": "< 50", "unit": "nM"}, {"measurement": "inhibition in vivo at 0.3 mg/kg", "setting": "[1]", "value": 15.4, "unit": "%"}, {"measurement": "EC50", "setting": "[4]", "value": "< 0.5", "unit": "nM"}, {"measurement": "Rat Embryofetal @6 mpk", "setting": "[2]", "value": "Negative"}]}, {"smiles": "CO[C@@H]1[C@H](OC(=O)N2CC3(CCOC3)C2)CC[C@]2(CO2)[C@H]1[C@@]1(C)O[C@@H]1CC=C(C)C", "note": "[Example 6, (3R,4S,5S,6R)-5-methoxy-4-((2R,3R)-2-methyl-3-(3-methylbut-2-enyl)oxiran-2-yl)-1-oxaspiro[2.5]octan-6-yl 6-oxa-2-azaspiro[3.4]octane-2-carboxylate]", "values": [{"measurement": "IC50", "setting": "recombinant human MetAP2", "value": "< 50", "unit": "nM"}, {"measurement": "inhibition in vivo at 0.3 mg/kg", "setting": "[1]", "value": 13.9, "unit": "%"}, {"measurement": "inhibition in vivo at 0.3 mg/kg", "setting": "[3]", "value": 2.7, "unit": "%"}]}]}
